Active and inactive are the calls of the source. The calls are words filed in the database; no cut-off is given here.
What was measured:
[1] = test system: Jurkat; assay: Cytotoxicity against human Jurkat cells assessed as reduction in cell viability after 24 hrs by MTT assay; assay type: functional, cell-based
[2] = test system: Jurkat; assay: Cytotoxicity against human Jurkat cells assessed as reduction in cell viability at 50 and 100 uM after 24 hrs by MTT assay; assay type: functional, cell-based
[3] = test system: SK-MEL-147; assay: Cytotoxicity against human SK-MEL-147 cells assessed as reduction in cell viability at 50 and 100 uM after 24 hrs by MTT assay; assay type: functional, cell-based
[4] = test system: SK-MEL-147; assay: Cytotoxicity against human SK-MEL-147 cells assessed as reduction in cell viability after 24 hrs by MTT assay; assay type: functional, cell-based; conditions: SK-MEL-147, 24 h
[5] = target: Cathepsin B (Homo sapiens, UniProt P07858); assay: Inhibition of cathepsin B (unknown origin) using Z-FR-AMC as substrate by spectrofluorometric analysis; conditions: read-out: IC50
[6] = test system: SK-MEL-147; assay: Cytotoxicity against human SK-MEL-147 cells assessed as reduction in cell viability in presence of BCL2 inhibitor venetoclax; assay type: functional, cell-based
[7] = species: Rattus norvegicus; assay: Induction of mitochondrial permeabilization in rat liver mitochondria assessed as mitochondrial transmembrane potential dissipation in presence of ADP by rhodamine-123 dye based spectrofluorometer analysis; assay type: functional
[8] = test system: SK-MEL-147; assay: Induction of apoptosis in human SK-MEL-147 cells assessed as mitochondrial membrane potential dissipation after 24 hrs by TMRM staining based fluorescence microscopic method; assay type: functional, cell-based
[9] = test system: SK-MEL-147; assay: Induction of apoptosis in human SK-MEL-147 cells assessed as early apoptotic cells at 20 uM after 24 hrs by Annexin V-FITC/propidium iodide staining based flow cytometry; assay type: functional, cell-based
[10] = test system: SK-MEL-147; assay: Induction of apoptosis in human SK-MEL-147 cells assessed as late apoptotic cells at 20 uM after 24 hrs by Annexin V-FITC/propidium iodide staining based flow cytometry; assay type: functional, cell-based
[11] = test system: SK-MEL-147; assay: Induction of apoptosis in human SK-MEL-147 cells assessed mitochondrial permeabilization after 24 hrs by mitotracker green staining based microscopic analysis; assay type: functional, cell-based
[12] = species: Rattus norvegicus; assay: Induction of mitochondrial permeabilization in rat liver mitochondria assessed as calcium efflux in presence of DTT by calcium green based spectrofluorometer analysis; assay type: functional
[13] = test system: SK-MEL-147; assay: Induction of apoptosis in human SK-MEL-147 cells assessed as increase in reactive oxygen species generation by CM-H2DCFDA staining based flow cytometric analysis; assay type: functional, cell-based
[14] = test system: SK-MEL-147; assay: Induction of apoptosis in human SK-MEL-147 cells assessed as effect on BCL-2 protein expression at 20 uM after 24 hrs by western blotting analysis; assay type: functional, cell-based
[15] = test system: SK-MEL; assay: Cytotoxicity against human SK-MEL-147 cells assessed as reduction in cell viability at EC50 concentration preincubated for 1 hr in presence of BAPTA measured after 24 hrs by MTT assay; assay type: functional, cell-based
[16] = test system: SK-MEL-147; assay: Cytotoxicity against human SK-MEL-147 cells assessed as reduction in cell viability at EC50 concentration preincubated for 1 hr in presence of N-acetyl cysteine measured after 24 hrs by MTT assay; assay type: functional, cell-based
[17] = species: Rattus norvegicus; assay: Induction of mitochondrial permeabilization in rat liver mitochondria assessed as calcium efflux in presence of CsA by calcium green based spectrofluorometer analysis; assay type: functional
[18] = test system: SK-MEL-147; assay: Cytotoxicity against human SK-MEL-147 cells assessed as reduction in cell viability at EC50 concentration preincubated for 1 hr in presence of Boc-D-FMK measured after 24 hrs by MTT assay; assay type: functional, cell-based
[19] = test system: SK-MEL; assay: Cytotoxicity against human SK-MEL-147 cells assessed as reduction in cell viability at EC50 concentration preincubated for 1 hr in presence of EGTA measured after 24 hrs by MTT assay; assay type: functional, cell-based
[20] = test system: SK-MEL-147; assay: Induction of apoptosis in human SK-MEL-147 cells assessed as necrotic cells at 20 uM after 24 hrs by Annexin V-FITC/propidium iodide staining based flow cytometry; assay type: functional, cell-based
[21] = species: Rattus norvegicus; assay: Induction of mitochondrial permeabilization in rat liver mitochondria assessed as calcium efflux by calcium green based spectrofluorometer analysis; assay type: functional
[22] = test system: SK-MEL-147; assay: Induction of apoptosis in human SK-MEL-147 cells assessed as increase in BAX expression at 20 uM after 24 hrs by western blotting analysis; assay type: functional, cell-based
[23] = species: Rattus norvegicus; assay: Induction of mitochondrial permeabilization in rat liver mitochondria assessed as mitochondrial transmembrane potential dissipation in presence of CsA by rhodamine-123 dye based spectrofluorometer analysis; assay type: functional
[24] = species: Rattus norvegicus; assay: Induction of mitochondrial permeabilization in rat liver mitochondria assessed as mitochondrial transmembrane potential dissipation in presence of DTT by rhodamine-123 dye based spectrofluorometer analysis; assay type: functional
[25] = target: Procathepsin L (Homo sapiens, UniProt P07711); assay: Inhibition of cathepsin L (unknown origin) using Z-FR-AMC as substrate by spectrofluorometric analysis; conditions: read-out: IC50
[26] = test system: SK-MEL-147; assay: Cytotoxicity against human SK-MEL-147 cells assessed as reduction in cell viability at EC50 concentration preincubated for 1 hr in presence of DTT measured after 24 hrs by MTT assay; assay type: functional, cell-based
[27] = test system: SK-MEL-147; assay: Cytotoxicity against human SK-MEL-147 cells assessed as reduction in cell viability at EC50 concentration preincubated for 1 hr in presence of E-64 measured after 24 hrs by MTT assay; assay type: functional, cell-based
[28] = species: Rattus norvegicus; assay: Induction of mitochondrial permeabilization in rat liver mitochondria assessed as mitochondrial transmembrane potential dissipation by rhodamine-123 dye based spectrofluorometer analysis; assay type: functional
[29] = species: Rattus norvegicus; assay: Induction of mitochondrial permeabilization in rat liver mitochondria assessed as calcium efflux in presence of ADP by calcium green based spectrofluorometer analysis; assay type: functional
[30] = test system: SK-MEL-147; assay: Cytotoxicity against human SK-MEL-147 cells assessed as reduction in cell viability at EC50 concentration preincubated for 1 hr in presence of GSH measured after 24 hrs by MTT assay; assay type: functional, cell-based
[31] = target: Cysteine proteinase B (Leishmania mexicana) (UniProt P36400); assay: Inhibition of Leishmania mexicana rCPB2.8 assessed as inhibition constant for uncompetitive inhibition using Z-FR-AMC as substrate preincubated for 10 mins followed by substrate addition by Lineweaver-Burk double reciprocal plot analysis
[32] = Inhibition of Leishmania mexicana rCPB3.0 using Z-FR-AMC as substrate by spectrofluorometric analysis
[33] = target: T1, Cysteine proteinase B (Leishmania mexicana, UniProt P36400); assay: Inhibition of Leishmania mexicana rCPB2.8 using Z-FR-AMC as substrate by spectrofluorometric analysis
[34] = target: T1, Cysteine proteinase B; assay: Inhibition of Leishmania mexicana rCPB2.8 assessed as inhibition constant using Z-FR-AMC as substrate preincubated for 10 mins followed by substrate addition by Lineweaver-Burk double reciprocal plot analysis
[35] = test system: Leishmania mexicana; assay: Inhibition of Leishmania mexicana rCPB3.0 assessed as inhibition constant for uncompetitive inhibition using Z-FR-AMC as substrate preincubated for 10 mins followed by substrate addition by Lineweaver-Burk double reciprocal plot analysis
[36] = Inhibition of Leishmania mexicana rCPB3.0 H84Y mutant assessed as inhibition constant using Z-FR-AMC as substrate preincubated for 10 mins followed by substrate addition by Lineweaver-Burk double reciprocal plot analysis
[37] = Inhibition of Leishmania mexicana rCPB3.0 H84Y mutant using Z-FR-AMC as substrate by spectrofluorometric analysis
[38] = Inhibition of Leishmania mexicana rCPB3.0 assessed as inhibition constant using Z-FR-AMC as substrate preincubated for 10 mins followed by substrate addition by Lineweaver-Burk double reciprocal plot analysis
[39] = test system: Leishmania mexicana; assay: Inhibition of Leishmania mexicana rCPB3.0 H84Y mutant assessed as inhibition constant for uncompetitive inhibition using Z-FR-AMC as substrate preincubated for 10 mins followed by substrate addition by Lineweaver-Burk double reciprocal plot analysis

T1 sequence (P36400 whole entry): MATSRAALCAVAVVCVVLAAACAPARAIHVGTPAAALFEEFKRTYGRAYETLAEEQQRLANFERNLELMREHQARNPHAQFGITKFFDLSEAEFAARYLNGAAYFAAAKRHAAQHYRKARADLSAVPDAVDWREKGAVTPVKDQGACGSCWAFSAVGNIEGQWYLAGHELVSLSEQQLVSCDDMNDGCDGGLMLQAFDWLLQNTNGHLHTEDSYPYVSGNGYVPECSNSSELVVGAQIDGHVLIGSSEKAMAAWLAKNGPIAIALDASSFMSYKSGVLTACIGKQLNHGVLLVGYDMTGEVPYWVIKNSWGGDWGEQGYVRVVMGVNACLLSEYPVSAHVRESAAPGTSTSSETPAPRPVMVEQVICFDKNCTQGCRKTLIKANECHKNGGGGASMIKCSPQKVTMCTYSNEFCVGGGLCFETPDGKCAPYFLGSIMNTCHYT
Sequence of Procathepsin L (P07711 whole entry): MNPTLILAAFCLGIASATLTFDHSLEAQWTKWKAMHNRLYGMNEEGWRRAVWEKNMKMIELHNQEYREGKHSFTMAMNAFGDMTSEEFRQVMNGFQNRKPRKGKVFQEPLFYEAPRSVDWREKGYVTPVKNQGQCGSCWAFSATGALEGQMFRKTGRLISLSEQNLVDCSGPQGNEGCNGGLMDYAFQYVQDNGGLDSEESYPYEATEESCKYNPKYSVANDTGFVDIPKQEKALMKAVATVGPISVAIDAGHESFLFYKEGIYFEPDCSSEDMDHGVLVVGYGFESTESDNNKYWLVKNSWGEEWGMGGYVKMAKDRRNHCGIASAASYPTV
Sequence of Cysteine proteinase B (Leishmania mexicana) (P36400 126-443 limits assumed): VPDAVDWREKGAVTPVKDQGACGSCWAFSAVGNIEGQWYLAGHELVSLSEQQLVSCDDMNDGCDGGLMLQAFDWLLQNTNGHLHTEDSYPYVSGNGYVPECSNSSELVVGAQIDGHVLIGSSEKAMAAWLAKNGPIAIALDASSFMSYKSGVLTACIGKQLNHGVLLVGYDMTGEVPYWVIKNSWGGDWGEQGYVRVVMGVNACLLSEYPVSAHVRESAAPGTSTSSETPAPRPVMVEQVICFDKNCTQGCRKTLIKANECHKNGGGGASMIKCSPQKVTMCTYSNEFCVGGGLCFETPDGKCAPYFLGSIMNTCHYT

For CCOC(=O)c1cc([Se]c2ccccc2C)c2cc(OC)ccc2n1, the EC50 [1] was 14.9 µM, the Activity [2] was “Active” and the Activity [3] was “Active”. The EC50 [4] was 38.9 µM.
With CCCCC#Cc1cc(C(=O)OCC)nc2ccc(OC)cc12 the IC50 [5] was 6.86 µM, the EC50 [1] was 15.9 µM and the Activity [6] was “Active”. The Activity [7] was “Active”, the Activity [8] was “Active” and the Activity [9] was “Active”. The Activity [10] was “Active”, the Activity [11] was “Active” and the Activity [12] was “Active”. For the same molecule, the Activity [2] was “Active”, the Activity [13] was “Active” and the Activity [14] was “inactive”. The Activity [15] was “Active”, the Activity [16] was “Active” and the Activity [3] was “Active”. The Activity [17] was “Active”, the Activity [18] was “inactive” and the Activity [19] was “Active”. The EC50 [4] was 7.2 µM, the Activity [20] was “Active” and the Activity [21] was “Active”. The Activity [22] was “Active”, the Activity [23] was “Active” and the Activity [24] was “Active”. The IC50 [25] was 3.69 µM, the Activity [26] was “Active” and the Activity [27] was “inactive”. For the same molecule, the Activity [28] was “Active”, the Activity [29] was “inactive” and the Activity [30] was “Active”.
With COc1ccc([Se]c2cc(-c3ccc(O)cc3)nc3ccc(OC)cc23)cc1 the alphaKi [31] was 22.1 µM, the EC50 [1] was 41.5 µM and the IC50 [32] was 5.78 µM. The IC50 [33] was 3.6 µM, the Activity [2] was “Active” and the Activity [3] was “Active”. For the same molecule, the Ki [34] was 21.7 µM, the EC50 [4] was 59.2 µM and the alphaKi [35] was 18.6 µM. It also gave a Ki [36] of 18.3 µM, an IC50 [37] of 12.4 µM and a Ki [38] of 18.5 µM. It also gave an alphaKi [39] of 18.4 µM.
For CCOC(=O)c1cc([Se]c2ccc3ccccc3c2)c2cc(OC)ccc2n1, the EC50 [1] was 50.7 µM, the Activity [2] was “Active” and the Activity [3] was “Active”. It also gave an EC50 [4] of 32.2 µM.
For CCOC(=O)c1cc([Se]c2ccc3cc(OC)ccc3c2)c2cc(OC)ccc2n1, the EC50 [1] was 31.3 µM, the Activity [2] was “Active” and the Activity [3] was “Active”. It also gave an EC50 [4] of 30.8 µM and an IC50 [37] of 8.44 µM.
In the case of CCOC(=O)c1cc([Se]c2ccc(F)cc2)c2cc(OC)ccc2n1, the EC50 [1] is reported as 134 µM, the Activity [2] is reported as “Active” and the Activity [3] is reported as “Active”. For the same molecule, the EC50 [4] was over 150 µM.

Reference: ChEMBL document CHEMBL4622851, “Cytotoxicity of 4-substituted quinoline derivatives: Anticancer and antileishmanial potential” (Bioorg Med Chem, 2020)
